# Experimental data from patent US7410975B2, “Small molecule toll-like receptor (TLR) antagonists” (Coley Pharmaceutical Group, Inc., priority 2003, dated 2008).
# Target: T1, human TLR9 (hTLR9) (Homo sapiens, UniProt Q9NR96)
# T1 construct: expressed in transfected cells
# T1 sequence (Q9NR96 26-1032): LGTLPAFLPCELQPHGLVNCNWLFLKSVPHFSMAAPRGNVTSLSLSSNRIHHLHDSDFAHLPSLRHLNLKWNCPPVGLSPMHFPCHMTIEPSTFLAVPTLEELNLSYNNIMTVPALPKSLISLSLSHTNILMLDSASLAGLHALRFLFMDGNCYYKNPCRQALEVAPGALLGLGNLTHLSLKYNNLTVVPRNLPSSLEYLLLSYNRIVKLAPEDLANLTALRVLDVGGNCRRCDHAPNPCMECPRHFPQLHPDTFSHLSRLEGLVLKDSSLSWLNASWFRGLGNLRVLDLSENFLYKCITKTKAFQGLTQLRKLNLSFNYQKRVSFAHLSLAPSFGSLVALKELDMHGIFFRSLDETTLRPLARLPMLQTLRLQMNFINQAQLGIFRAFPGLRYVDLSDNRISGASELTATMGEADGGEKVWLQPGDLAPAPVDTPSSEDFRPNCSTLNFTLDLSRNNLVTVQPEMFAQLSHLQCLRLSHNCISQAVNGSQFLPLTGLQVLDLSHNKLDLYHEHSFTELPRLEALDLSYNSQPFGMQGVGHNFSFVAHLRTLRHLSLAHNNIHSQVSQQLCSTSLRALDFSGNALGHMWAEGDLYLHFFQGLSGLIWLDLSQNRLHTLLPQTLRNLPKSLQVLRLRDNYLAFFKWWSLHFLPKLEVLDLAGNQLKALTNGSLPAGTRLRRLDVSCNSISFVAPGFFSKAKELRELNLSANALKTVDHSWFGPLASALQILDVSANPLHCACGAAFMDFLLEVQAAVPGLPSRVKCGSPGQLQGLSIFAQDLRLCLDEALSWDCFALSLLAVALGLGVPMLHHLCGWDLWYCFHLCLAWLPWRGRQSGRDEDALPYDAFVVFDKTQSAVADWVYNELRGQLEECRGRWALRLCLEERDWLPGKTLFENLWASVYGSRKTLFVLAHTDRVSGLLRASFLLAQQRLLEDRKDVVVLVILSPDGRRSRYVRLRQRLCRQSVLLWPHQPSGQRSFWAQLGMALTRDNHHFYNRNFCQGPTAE
# Test: Antagonist screen, hTLR9-NFκB-293 cells, 6× NF-κB-luciferase reporter, with EC50 of CpG ODN 2006
# Format: cell-based
# Settings: FIG. 1, graph
# Method: Candidate small molecules for initial screening were obtained from a commercially available library of 880 off-patent small molecules selected for structural diversity and proven bioavailability in humans (Prestwick Chemical Library). […] Results were measured as fold induction over baseline luciferase activity measured in the absence of ODN 2006 and compared to fold induction over baseline in the presence of the EC50 concentration of ODN 2006 alone. […] Additional screening was performed in like manner using additional small molecules selected from another library or specifically prepared for this purpose.
# The method is described in greater detail as follows. The cells for each individual cell clone (hTLR3-NFκB-293, hTLR7-NFκB-293, hTLR8-NFκB-293 and hTLR9-NFκB-293) were counted and seeded one day before the stimulation at 1.5×10^4 cells per well in 96-well cell culture plates. To become adherent the cells were incubated after seeding overnight at 37° C. in 5% CO2 humidified air.
# The screen for each compound was performed at the same time for all of the receptors TLR3, TLR7, TLR8 and TLR9. Up to fifteen test compounds, each assayed in duplicate at each of three different final concentrations (0.5 μg/ml, 5 μg/ml, and 50 μg/ml), were used for 16 h cell stimulation on a single multiwell culture plate. A 4× final concentration master plate was created to prepare the different test compounds before they were added to the cells.
# Controls were added as duplicates individually for each cell clone on the cell culture plate. Positive controls were used as follows (final concentrations): 50 μg/ml poly(I:C) for hTLR3-NFκB-293; 8 μM resiquimod (R848) for hTLR7-NFκB-293; 30 μM R848 for hTLR8-NFκB-293; and 2.5 μM CpG-ODN 2006 for hTLR9-NFκB-293. Media alone was used as negative control. After addition of controls and small molecules, the cell clones were additionally stimulated with the EC50 concentration of the appropriate receptor-specific ligand.
# The mean value of wells H2 and H5 (each with cells and EC50 concentration of the appropriate receptor-specific ligand) divided by the mean of wells H3 and H6 (each with cells alone) yielded the baseline response (i.e., fold induction of luciferase activity) to EC50 concentration of the appropriate receptor-specific ligand.
# After 16 h stimulation the supernatant was removed and the cells treated with lysis buffer and stored at −80° C. before measuring.
# For each screen result a graphical documentation was performed.
# The baseline result (measured with addition of the EC50 concentration of the receptor-specific ligand) for each cell culture plate was measured as described above. Antagonistic effects were measured by down regulation compared to the baseline. Antagonists were scored as follows: • 13: compounds for which there was clear down regulation at 0.5 μg/ml, 5 μg/ml, and 50 μg/ml; • 12: compounds for which there was clear down regulation at 5 μg/ml and 50 μg/ml; • 11: compounds for which there was clear down regulation only at 50 μg/ml; • —: compounds for which there was no clear down regulation even at 50 μg/ml. Agonists
row,Compound,inhibition of TLR9 signaling in response to CpG ODN 2006 (FIG. 1)
1,"c1ccc2c(c1)[nH]c1cnccc12 [compound 470, norharman]",concentration-dependent inhibition
2,"COc1ccc2c(c1)[nH]c1c(C)nccc12.Cl [compound 613, harmine hydrochloride]",concentration-dependent inhibition

# Same assay, conditions: compound at 0.5, 5, 50 μg/ml; EC50 concentration of CpG ODN 2006; 16 h; NF-κB-luciferase
row,Compound,"hTLR9 (inhibitory effect, antagonist score)"
1,CC1CCN(C(=O)c2cccc3c2-c2ccccc2C3=O)CC1 [compound 1243],— (compounds for which there was no clear down regulation even at 50 μg/ml)
2,"c1ccc2c(c1)[nH]c1cnccc12 [compound 470, norharman]",11 (compounds for which there was clear down regulation only at 50 μg/ml)
3,"COC(=O)[C@H]1[C@H]2C[C@@H]3c4[nH]c5cc(OC)ccc5c4CCN3C[C@H]2C[C@@H](OC(=O)/C=C/c2cc(OC)c(OC)c(OC)c2)[C@@H]1OC [compound 568, Rescinnamin]",12 (compounds for which there was clear down regulation at 5 μg/ml and 50 μg/ml)
4,"OC(c1ccccc1)(c1ccccc1)C1CCNCC1 [compound 93, Azacyclonol]",11 (compounds for which there was clear down regulation only at 50 μg/ml)
5,"Clc1ccc(C(c2ccccc2Cl)C(Cl)Cl)cc1 (stereo not shown) [compound 833, Mitotane]",12 (compounds for which there was clear down regulation at 5 μg/ml and 50 μg/ml)
6,"CN(C)CCCN1c2ccccc2Sc2ccc(C(F)(F)F)cc21.Cl [compound 53, Triflupromazinehydrochloride]","13 (compounds for which there was clear down regulation at 0.5 μg/ml, 5 μg/ml, and 50 μg/ml)"
7,"Cc1nccc2c1[nH]c1cc(O)ccc12.Cl [compound 612, Harmol hydrochloride monohydrate]",12 (compounds for which there was clear down regulation at 5 μg/ml and 50 μg/ml)
8,O=C(O)c1cccc2c1-c1ccccc1/C2=N/Nc1ccc([N+](=O)[O-])cc1[N+](=O)[O-] [compound 944],— (compounds for which there was no clear down regulation even at 50 μg/ml)
9,"Nc1cccc2c1C(=O)c1cccc(N)c1C2=O [compound 413, Anthraquinone,1,5-diamino]","13 (compounds for which there was clear down regulation at 0.5 μg/ml, 5 μg/ml, and 50 μg/ml)"
10,"CCCC(C(=O)OCCN(CC)CC)(c1ccccc1)c1ccccc1.Cl [compound 778, Proadifen hydrochloride]",11 (compounds for which there was clear down regulation only at 50 μg/ml)
11,"Cl.Cl.Fc1ccc(C(OCCN2CCN(CCCc3ccccc3)CC2)c2ccc(F)cc2)cc1 [compound 386, GBR 12909hydrochloride]",— (compounds for which there was no clear down regulation even at 50 μg/ml)
12,"C[N+]12CCC(CC1)C(OC(=O)C(O)(c1ccccc1)c1ccccc1)C2.[Br-] (stereo not shown) [compound 822, Clidinium bromide]",12 (compounds for which there was clear down regulation at 5 μg/ml and 50 μg/ml)
13,"CN(C)CCCN1c2ccccc2Sc2ccccc21.Cl [compound 693, Promazinehydrochloride]",12 (compounds for which there was clear down regulation at 5 μg/ml and 50 μg/ml)
14,"CC(CN(C)C)CN1c2ccccc2Sc2ccccc21.CC(CN(C)C)CN1c2ccccc2Sc2ccccc21.O=C(O)C(O)C(O)C(=O)O (stereo not shown) [compound 842, Trimeprazine tartrate]",— (compounds for which there was no clear down regulation even at 50 μg/ml)
15,"COc1ccc2c(c1)[nH]c1c(C)nccc12.Cl [compound 613, harmine hydrochloride]","13 (compounds for which there was clear down regulation at 0.5 μg/ml, 5 μg/ml, and 50 μg/ml)"
16,O=C1c2ccccc2C(=O)c2c1ccc1c(=O)n(-c3ccccc3)[nH]c21 [compound 1042],12 (compounds for which there was clear down regulation at 5 μg/ml and 50 μg/ml)
17,O=C(O)c1ccccc1NC1CC=CC2=C1C(=O)c1ccccc1C2=O (stereo not shown) [compound 917],— (compounds for which there was no clear down regulation even at 50 μg/ml)
18,Metixene hydrochloride [compound 491],12 (compounds for which there was clear down regulation at 5 μg/ml and 50 μg/ml)
19,"CC(=O)c1ccc2c(c1)N(CCCN(C)C)c1ccccc1S2.O=C(O)/C=C\C(=O)O [compound 576, Acetopromazinemaleate salt]",12 (compounds for which there was clear down regulation at 5 μg/ml and 50 μg/ml)
20,"CN(C)CC/C=C1/c2ccccc2Sc2ccc(Cl)cc21.Cl [compound 348, Chlorprothixenehydrochloride]",12 (compounds for which there was clear down regulation at 5 μg/ml and 50 μg/ml)
21,"Cl.Clc1ccc(C(OCCN2CCCCC2)c2ccccc2)cc1 (stereo not shown) [compound 793, Cloperastinehydrochloride]",12 (compounds for which there was clear down regulation at 5 μg/ml and 50 μg/ml)
22,"CCN(CC)C(C)CN1c2ccccc2Sc2ccccc21.Cl (stereo not shown) [compound 840, Ethopropazinehydrochloride]",11 (compounds for which there was clear down regulation only at 50 μg/ml)
23,COC(=O)c1ccc(C2CC(=O)Nc3c2ccc2ccccc32)cc1 (stereo not shown) [compound 965],— (compounds for which there was no clear down regulation even at 50 μg/ml)
24,"CN(C)CC/C=C1/c2ccccc2CSc2ccccc21.Cl [compound 488, Dosulepin hydrochloride]",12 (compounds for which there was clear down regulation at 5 μg/ml and 50 μg/ml)
25,"COc1ccc2c(c1)N(CC(C)CN(C)C)c1ccccc1S2.O=C(O)/C=C\C(=O)O (stereo not shown) [compound 797, Methotrimeprazinemaleat salt]",— (compounds for which there was no clear down regulation even at 50 μg/ml)
26,O=C(O)c1cc(C(c2ccc(O)c(C(=O)O)c2)C(Cl)(Cl)Cl)ccc1O [compound 884],— (compounds for which there was no clear down regulation even at 50 μg/ml)
27,"C[C@]12N[C@H](Cc3ccccc31)c1ccccc12.O=C(O)/C=C\C(=O)O [compound 109, Dizocilpine maleate]","13 (compounds for which there was clear down regulation at 0.5 μg/ml, 5 μg/ml, and 50 μg/ml)"
28,"Cc1c2ccncc2c(C)c2c1[nH]c1ccccc12 [compound 614, Ellipticine]","13 (compounds for which there was clear down regulation at 0.5 μg/ml, 5 μg/ml, and 50 μg/ml)"
29,"O=c1[nH]c2ccccc2n1C1CCN(CCCC(c2ccc(F)cc2)c2ccc(F)cc2)CC1 [compound 308, Pimozide]",12 (compounds for which there was clear down regulation at 5 μg/ml and 50 μg/ml)
